For test [1], the target named is Dual specificity mitogen-activated protein kinase kinase; MEK1/2 (Homo sapiens, UniProt P36507+Q02750). Put plainly: Ability to antagonise AP-1 transcriptional activity. The test is classed as functional.
For test [2], the target named is T1, Dual specificity mitogen-activated protein kinase kinase 1 (Homo sapiens, UniProt Q02750).
For test [3], the target named is T1, Dual specificity mitogen-activated protein kinase kinase 1. Put plainly: Non-competitive inhibition of the dual specificity kinase MEK at the concentration 10 uM.
For test [4] the target is unchanged. Put plainly: Inhibition of the dual specificity kinase MEK-1 (Inactive).

Broadly, the IC50 is the midpoint of a concentration-inhibition curve. Read a high IC50 as weaker potency. The inhibition is how much of the control response was suppressed.

Each structure is given as a SMILES string.

T1 sequence (Q02750 whole entry): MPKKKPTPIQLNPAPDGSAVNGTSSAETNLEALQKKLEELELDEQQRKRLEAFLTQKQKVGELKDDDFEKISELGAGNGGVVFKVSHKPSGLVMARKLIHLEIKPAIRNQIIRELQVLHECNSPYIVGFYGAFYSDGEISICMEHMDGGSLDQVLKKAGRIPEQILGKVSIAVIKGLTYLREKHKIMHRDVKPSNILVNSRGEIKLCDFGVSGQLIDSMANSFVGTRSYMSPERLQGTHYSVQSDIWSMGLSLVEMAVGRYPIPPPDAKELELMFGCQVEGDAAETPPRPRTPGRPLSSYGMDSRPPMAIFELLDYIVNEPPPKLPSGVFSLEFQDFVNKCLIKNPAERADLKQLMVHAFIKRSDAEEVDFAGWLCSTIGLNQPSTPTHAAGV

Consider `N#Cc1c(NS(=O)(=O)c2ccccc2)[nH]c(Sc2ccc3ccccc3c2)c1C#N`, for which the figures for the IC50 in test [1] and in test [2] were 8 µM and 1.9 µM, respectively.
As to `N#CC(=C(/N)Sc1ccc(O)cc1)/C(C#N)=C(\N)Sc1ccc(O)cc1`, the IC50 in test [2] turned out to be 0.4 µM.
With `N#Cc1c(N)[nH]c(Sc2ccc3ccccc3c2)c1C#N`, the half-inhibitory concentration (IC50) in test [1] is 25.1 µM; in test [2], 1.4 µM.
On the same counts, the results for `N#CC(=C(/N)Sc1ccccc1N)/C(C#N)=C1\Nc2ccccc2S1` are 18.7 µM and 3.2 µM.
In the same order, the values of `Cc1ccccc1S/C(N)=C(C#N)/C(C#N)=C(\N)Sc1ccccc1C` are 13.3 µM and 2 µM.
As for `N#CC(=C(/N)Sc1ccc(C(F)(F)F)cc1)/C(C#N)=C(\N)Sc1ccc(C(F)(F)F)cc1`, in test [3], the inhibition turned out to be 33%.
As to `CN1/C(=C(C#N)\C(C#N)=C2\Sc3ccccc3N2C)Sc2ccccc21`, in test [4], the IC50 result is listed as “Not Active”.
On to `N#CC(=C(/N)Sc1ccccc1F)/C(C#N)=C(\N)Sc1ccccc1F`, for which the IC50 is 7.6 µM in test [1] and 0.9 µM in test [2].
Consider `COc1ccc(S/C(N)=C(C#N)/C(C#N)=C(\N)Sc2ccc(OC)c(OC)c2)cc1OC`, for which, in test [3], the inhibition came out at 0%.
Regarding `N#CC(=C(/N)Sc1ccccc1-c1ccccc1)/C(C#N)=C(\N)Sc1ccccc1-c1ccccc1`, in test [3], the inhibition was 8.7%.
The compound `N#CC(=C(/N)Sc1ccccc1[N+](=O)[O-])/C(C#N)=C(\N)Sc1ccccc1[N+](=O)[O-]` yielded an inhibition in test [3] of 41%.
As to `N#CC(=C(/N)Sc1cccc(Cl)c1)/C(C#N)=C(\N)Sc1cccc(Cl)c1`, the IC50 was 18.4 µM in test [1] and 1.9 µM in test [2].
As for `N#CC(=C(/N)Sc1ccccc1Br)/C(C#N)=C(\N)Sc1ccccc1Br`, the IC50 turned out to be 7.9 µM in test [1] and 1.1 µM in test [2].
`COc1ccccc1S/C(N)=C(C#N)/C(C#N)=C(\N)Sc1ccccc1OC`: the IC50 in test [1] is 16.5 µM; in test [2], 4.5 µM.
For `N#CC(=C(/N)Sc1ccccc1)/C(C#N)=C(\N)Sc1ccccc1`, the figures for the 50% inhibitory concentration (IC50) in test [1] and in test [2] were 12.2 µM and 0.9 µM, respectively.
For the compound `N#CC(=C(/N)SCCO)/C(C#N)=C(\N)SCCO`, in test [3], the inhibition is 0%.
`N#CC(=C(/N)Sc1ccccc1CO)/C(C#N)=C(\N)Sc1ccccc1CO` registered an inhibition in test [3] of 51%.
Consider `N#CC(=C(/N)Sc1c(Cl)cccc1Cl)/C(C#N)=C(\N)Sc1c(Cl)cccc1Cl`, for which the IC50 in test [1] came to 6.5 µM; in test [2], 2.8 µM.
`N#CC(=C(/N)Sc1ccc2ccccc2c1)/C(C#N)=C(\N)Sc1ccc2ccccc2c1` gave an inhibition in test [3] of 54%.
Consider `N#CC(=C(/N)Sc1cccc2ccccc12)/C(C#N)=C(\N)Sc1cccc2ccccc12`, for which, in test [3], the inhibition worked out at 26%.
Compound `N#CC(=C(/N)Sc1ccc2ccccc2c1N)/C(C#N)=C(\N)Sc1ccc2ccccc2c1N` showed an IC50 in test [2] of 2.1 µM.
The compound `N#CC(=C(/N)Sc1cc(I)ccc1N)/C(C#N)=C(\N)Sc1cc(I)ccc1N` had an inhibition in test [3] of 34.8%.
Regarding `N#CC(=C1/Nc2ccccc2S1)/C(C#N)=C1\Nc2ccccc2S1`, the IC50 in test [1] stood at 42.5 µM; in test [2], 0.7 µM.
Consider `CCc1ccccc1S/C(N)=C(C#N)/C(C#N)=C(\N)Sc1ccccc1CC`, for which the inhibition in test [3] was 18%.
As for `N#CC(=C(/N)Sc1c(F)c(F)c(F)c(F)c1F)/C(C#N)=C(\N)Sc1c(F)c(F)c(F)c(F)c1F`, the inhibition in test [3] worked out at 17%.
As to `N#Cc1c(N)[nH]c(Sc2ccccc2N)c1C#N`, the half-inhibitory concentration (IC50) in test [1] amounted to 26.2 µM; in test [2], 13.5 µM.
Consider `COc1ccc(OC)c(S/C(N)=C(C#N)/C(C#N)=C(\N)Sc2cc(OC)ccc2OC)c1`, for which the inhibition in test [3] was 18%.
Compound `N#CC(=C(/N)Sc1ccc(-c2ccccc2)cc1)/C(C#N)=C(\N)Sc1ccc(-c2ccccc2)cc1` displayed an inhibition in test [3] of 34%.
On to `N#CC(=C(/N)Sc1ccccc1O)/C(C#N)=C(\N)Sc1ccccc1O`, for which the IC50 in test [1] came out at 0.4 µM; in test [2], 0.3 µM.
`CC(=O)Nc1ccc(S/C(N)=C(C#N)/C(C#N)=C(\N)Sc2ccc(NC(C)=O)cc2)cc1`: the inhibition in test [3] turned out to be 0%.
As for `N#Cc1c(Sc2ccc3ccccc3c2)[nH]c(Sc2ccc3ccccc3c2)c1C#N`, the 50% inhibitory concentration (IC50) in test [1] was 28.9 µM; in test [2], 2.1 µM.
As for `CC(=O)Nc1ccccc1Sc1c(C#N)c(C#N)c2sc3ccccc3n12`, the IC50 result in test [4] was “Not Active”.
Turning to `N#CC(=C(/N)Sc1cccc(C(F)(F)F)c1)/C(C#N)=C(\N)Sc1cccc(C(F)(F)F)c1`, the inhibition in test [3] turned out to be 32%.
For `N#CC(=C(/N)Sc1ccc(Cl)cc1)/C(C#N)=C(\N)Sc1ccc(Cl)cc1`, the half-maximal inhibitory concentration (IC50) in test [1] was found to be 21.7 µM; in test [2], 2.1 µM.
Compound `N#CC(=C(/N)Sc1cccc(-c2ccccc2)c1)/C(C#N)=C(\N)Sc1cccc(-c2ccccc2)c1` had an inhibition in test [3] of 54.6%.
Regarding `N#CC(=C(/N)Sc1cccs1)/C(C#N)=C(\N)Sc1cccs1`, the IC50 in test [1] stood at 1.2 µM; in test [2], 0.3 µM.
As for `CS/C(N)=C(C#N)/C(C#N)=C(\N)SC`, the inhibition in test [3] was determined as 24%.
For the compound `N#Cc1c(C#N)c2sc3ccccc3n2c1Sc1ccccc1N`, in test [4], the IC50 entry was “Not Active”.
As to `CNc1ccccc1S/C(N)=C(C#N)/C(C#N)=C(\N)Sc1ccccc1NC`, the inhibition in test [3] amounted to 19.1%.
On to `N#CC(=C(/N)Sc1ccccc1Cl)/C(C#N)=C(\N)Sc1ccccc1Cl`, for which the IC50 turned out to be 6.6 µM in test [1] and 0.9 µM in test [2].

The values are drawn from ChEMBL document CHEMBL1130626, “MEK inhibitors: the chemistry and biological activity of U0126, its analogs, and cyclization products” (Bioorg Med Chem Lett, 1998).
